# Experimental data reported in patent US20210345614A1, “APPLICATION OF 7-CARBOXYBENZO[1,2,3]THIADIAZOLE AMIDES AS PLANT STIMULANTS” (ADAM MICKIEWICZ UNIVERSITY FOUNDATION, priority 2015, published 2021).
# System: Pyrenophora teres
# Experiment: Field test on barley, fungal infection by Pyrenophora teres
# Format: in vivo, Hordeum vulgare (spring)
# Protocol: The test was conducted on a variety of barley Hordeum vulgare (spring). As such, six applications of the active substance solution was made. The study was conducted on fields of about 25 m^2 in quadruplicate for each combination tested. […] (with the addition of commercial adjuvant) followed by treatment with common fungicide (tebukonazole in formulation containing 250 g of active substance to be applied per 1 ha) in reducing infection of fungi Pyrenophora teres in barley (Hordeum vulgare (spring)) was performed. […] Six applications of the active substance BTHWA solution were made. As a control, one application of fungicide was performed at the time as indicated on the product label. The study was conducted on fields of about 25 m^2 in quadruplicate for each combination tested. […] The fungicide was applied in an amount of 33% its recommended dose (83 g/ha). Six applications of the active substance BTHWA solution were made. As a control, one application of fungicide was performed at the time as indicated on the product label. The study was conducted on fields of about 25 m^2 in quadruplicate for each combination tested.
# [1] = Example 29: tebukonazole 1x 250 g/ha alone, or BTHWA 20 mg/L (six applications) + tebukonazole 1x 125 g/ha
# [2] = Example 30: tebukonazole 1x 250 g/ha alone, or BTHWA 20 mg/L (six applications) + tebukonazole 1x, table prints 125 g/ha, text 83 g/ha
smiles,measurement,setting,value
"CC(C)(C)C(O)(CCc1ccc(Cl)cc1)Cn1cncn1 (racemic) [tebukonazole, (RS)-1-(4-chlorophenyl)-4,4-dimethyl-3-(1H, 1,2,4-triazol-1-ylmethyl)pentan-3-ol]",% efficacy,[1],90.87%
same,% of infection,[1],6.00%
same,% efficacy,[2],90.87%
same,% of infection,[2],6.00%
